For this series, the system named is Dkk1-LRP5-TCF-Luciferase. The series is described as follows: Functional Dkk1-LRP5-TCF-Luciferase Assay in U2OS Cells. Conditions: for fold induction at 20 µM: read-out: C = TCF ACTIVITY/DMSO CONTROL Fold induction @ 20.0 uM, 20.0 uM compound; for A = MAX FOLD Induction/DMSO CONTROL: maximum fold induction over DMSO control.
Where [1] appears, read: Homo sapiens, U2OS, read-out: B = TCF ACTIVITY/DMSO CONTROL Fold induction @ 2.0 uM, 2.0 uM compound.

Where two headings read alike, the source gives them in different places.

`NCC[C@H]1CCCN1c1nccc(-c2ccc3ccccc3c2)n1` [2-{(2R)-1-[4-(2-naphthyl)pyrimidin-2-yl]pyrrolidin-2-yl}ethanamine]: the “A = MAX FOLD Induction/DMSO CONTROL” value is on record as 2.270 fold. The fold induction at 2 µM under setting [1] is 2.72. For the same compound, the fold induction at 20 µM (Homo sapiens, U2OS) was 0.01.

`CN1CCN(C(=O)[C@H]2CCCN2c2nccc(-c3ccc4ccccc4c3)n2)CC1` [2-{(2R)-2-[(4-methylpiperazin-1-yl)carbonyl]pyrrolidin-1-yl}-4-(2-naphthyl)pyrimidine]: the “A = MAX FOLD Induction/DMSO CONTROL” value was 1.600 fold. In addition, the fold induction at 2 µM under setting [1] was 1.01. Also, under “Homo sapiens, U2OS”, the fold induction at 20 µM stood at 2.09.

In the case of `NCC[C@@H]1CCCN1c1nccc(-c2ccc3ccccc3c2)n1` [2-{(2S)-1-[4-(2-naphthyl)pyrimidin-2-yl]pyrrolidin-2-yl}ethanamine], the “A = MAX FOLD Induction/DMSO CONTROL” value was 2.950 fold. The fold induction at 2 µM under setting [1] came out at 4.08. Further, the fold induction at 20 µM (Homo sapiens, U2OS) stood at 0.02.

With `CN1CCN(C(=O)[C@@H]2CCCN2c2nccc(-c3ccc4ccccc4c3)n2)CC1` [2-{(2S)-2-[(4-methylpiperazin-1-yl)carbonyl]pyrrolidin-1-yl}-4-(2-naphthyl)pyrimidine], the fold induction at 2 µM under setting [1] was found to be 0.9. In addition, where the note is “Homo sapiens, U2OS”, the fold induction at 20 µM was found to be 1.6.

As to `c1ccc2cc(-c3ccnc(N4CC[C@@H](N5CCN6CCCCC6C5)C4)n3)ccc2c1` (stereo partly drawn) [2-{(3R)-1-[4-(2-naphthyl)pyrimidin-2-yl]pyrrolidin-3-yl}octahydro-2H-pyrido[1,2-a]pyrazine], the fold induction at 2 µM under setting [1] was 1.3.

In the case of `CN1CCN(C[C@H]2CCN(c3nccc(-c4ccc5ccccc5c4)n3)C2)CC1` [2-{(3R)-3-[(4-methylpiperazin-1-yl)methyl]pyrrolidin-1-yl}-4-(2-naphthyl)pyrimidine], the “A = MAX FOLD Induction/DMSO CONTROL” value is 2.180 fold. Besides, the fold induction at 2 µM under setting [1] came out at 2.5. For the same compound, the fold induction at 20 µM (Homo sapiens, U2OS) amounted to 0.01.

With `CN1CCN(C[C@@H]2CCN(c3nccc(-c4ccc5ccccc5c4)n3)C2)CC1` [2-{(3S)-3-[(4-methylpiperazin-1-yl)methyl]pyrrolidin-1-yl}-4-(2-naphthyl)pyrimidine], under setting [1], the fold induction at 2 µM turned out to be 1.8.

In the case of `CN(CCCO)[C@@H]1CCN(c2nccc(-c3ccc4ccccc4c3)n2)C1` [3-(methyl{(3R)-1-[4-(2-naphthyl)pyrimidin-2-yl]pyrrolidin-3-yl}amino)propan-1-ol], under “Homo sapiens, U2OS”, the fold induction at 20 µM came out at 3.3.

Regarding `CN(CCCO)[C@H]1CCN(c2nccc(-c3ccc4ccccc4c3)n2)C1` [3-(methyl{(3S)-1-[4-(2-naphthyl)pyrimidin-2-yl]pyrrolidin-3-yl}amino)propan-1-ol], the fold induction at 2 µM under setting [1] was found to be 1.1.

Consider `NC(=O)N1CC(CNc2nccc(-c3ccc4ccccc4c3)n2)C1` [3-({[4-(2-naphthyl)pyrimidin-2-yl]amino}methyl)azetidine-1-carboxamide], for which the fold induction at 2 µM under setting [1] stood at 1.09. Besides, where the note is “Homo sapiens, U2OS”, the fold induction at 20 µM was determined as 1.58.

`c1ccc(N2CCN(c3nccc(-c4ccc5ccccc5c4)n3)CC2)nc1` [4-(2-naphthyl)-2-(4-pyridin-2-ylpiperazin-1-yl)pyrimidine]: under setting [1], the fold induction at 2 µM came out at 1.8.

Regarding `c1cnc(N2CCN(c3nccc(-c4ccc5ccccc5c4)n3)CC2)nc1` [4-(2-naphthyl)-2-(4-pyrimidin-2-ylpiperazin-1-yl)pyrimidine], under setting [1], the fold induction at 2 µM came out at 1.02. Further, the fold induction at 20 µM (Homo sapiens, U2OS) is 1.24.

With `c1ccc2cc(-c3ccnc(N4CCC(CN5CCCCC5)C4)n3)ccc2c1` (stereo not drawn) [4-(2-naphthyl)-2-[3-(piperidin-1-ylmethyl)pyrrolidin-1-yl]pyrimidine], the fold induction at 2 µM under setting [1] is 1.66. Further, the fold induction at 20 µM (Homo sapiens, U2OS) came to 0.01.

In general, EC50 refers to the concentration giving half of the maximal effect. A higher EC50 goes with weaker potency. Take `c1ccc2cc(-c3ccnc(N4CCC(CN5CCCC5)C4)n3)ccc2c1` (stereo not drawn) [4-(2-naphthyl)-2-[3-(pyrrolidin-1-ylmethyl)pyrrolidin-1-yl]pyrimidine]: the “A = MAX FOLD Induction/DMSO CONTROL” value is 7.000 fold. In addition, the concentration for a half-maximal effect (EC50) (Homo sapiens, U2OS) amounted to 7.59 µM. In addition, the fold induction at 2 µM under setting [1] was determined as 1.87.

Regarding `CC(C1CCN(c2nccc(-c3ccc4ccccc4c3)n2)CC1)[N+](=O)[O-]` (stereo not drawn) [4-(2-naphthyl)-2-[4-(1-nitroethyl)piperidin-1-yl]pyrimidine], the fold induction at 20 µM (Homo sapiens, U2OS) amounted to 1.44.

`O=[N+]([O-])CC1CCN(c2nccc(-c3ccc4ccccc4c3)n2)CC1` [4-(2-naphthyl)-2-[4-(nitromethyl)piperidin-1-yl]pyrimidine]: the fold induction at 2 µM under setting [1] turned out to be 1.5. The fold induction at 20 µM (Homo sapiens, U2OS) is 0.68.

On to `c1ccc2cc(-c3ccnc(N4CCC(CN5CCNCC5)CC4)n3)ccc2c1` [4-(2-naphthyl)-2-[4-(piperazin-1-ylmethyl)piperidin-1-yl]pyrimidine], for which the “A = MAX FOLD Induction/DMSO CONTROL” value worked out at 2.510 fold. In addition, the fold induction at 2 µM under setting [1] was found to be 5.17. For the same compound, under “Homo sapiens, U2OS”, the fold induction at 20 µM stood at 0.01.

Compound `c1ccc2cc(-c3ccnc(N4CCC(CN5CCCCC5)CC4)n3)ccc2c1` [4-(2-naphthyl)-2-[4-(piperidin-1-ylmethyl)piperidin-1-yl]pyrimidine] had an EC50 of 8.59 µM. In addition, under “20.0 uM compound, 20 µM”, the “C = TCF ACTIVITY/DMSO CONTROL Fold induction @ 20.0 uM” value is 1.687 fold. Also, where the note is “Homo sapiens, U2OS”, the EC50 is 8 µM and the fold induction at 20 µM is 2.8. Also, the fold induction at 2 µM under setting [1] was 1.09.

Take `c1ccc2cc(-c3ccnc(N4CCC(CN5CCCC5)CC4)n3)ccc2c1` [4-(2-naphthyl)-2-[4-(pyrrolidin-1-ylmethyl)piperidin-1-yl]pyrimidine]: a half-maximal response (EC50) required 3.18 µM. Under “Homo sapiens, U2OS”, the EC50 came out at 3.5 µM. Besides, the fold induction at 2 µM under setting [1] worked out at 2.07.

As for `O=C([C@H]1CCCN1c1nccc(-c2ccc3ccccc3c2)n1)N1CCCCC1` [4-(2-naphthyl)-2-[(2R)-2-(piperidin-1-ylcarbonyl)pyrrolidin-1-yl]pyrimidine], the fold induction at 2 µM under setting [1] is 1.01.

On to `O=C([C@H]1CCCN1c1nccc(-c2ccc3ccccc3c2)n1)N1CCCC1` [4-(2-naphthyl)-2-[(2R)-2-(pyrrolidin-1-ylcarbonyl)pyrrolidin-1-yl]pyrimidine], for which the fold induction at 2 µM under setting [1] amounted to 1.05. In addition, the fold induction at 20 µM (Homo sapiens, U2OS) was 1.1.

Turning to `O=C([C@@H]1CCCN1c1nccc(-c2ccc3ccccc3c2)n1)N1CCCCC1` [4-(2-naphthyl)-2-[(2S)-2-(piperidin-1-ylcarbonyl)pyrrolidin-1-yl]pyrimidine], the fold induction at 2 µM under setting [1] turned out to be 1.91.

With `O=C([C@@H]1CCCN1c1nccc(-c2ccc3ccccc3c2)n1)N1CCCC1` [4-(2-naphthyl)-2-[(2S)-2-(pyrrolidin-1-ylcarbonyl)pyrrolidin-1-yl]pyrimidine], the fold induction at 2 µM under setting [1] worked out at 0.87. For the setting “Homo sapiens, U2OS”, the fold induction at 20 µM turned out to be 1.07.

For `c1ccc2cc(-c3ccnc(N4CC[C@H](CN5CCCCC5)C4)n3)ccc2c1` [4-(2-naphthyl)-2-[(3R)-3-(piperidin-1-ylmethyl)pyrrolidin-1-yl]pyrimidine], the fold induction at 2 µM under setting [1] was determined as 1.21. Further, the fold induction at 20 µM (Homo sapiens, U2OS) came to 1.34.

On to `c1ccc2cc(-c3ccnc(N4CC[C@H](CN5CCCC5)C4)n3)ccc2c1` [4-(2-naphthyl)-2-[(3R)-3-(pyrrolidin-1-ylmethyl)pyrrolidin-1-yl]pyrimidine], for which the “A = MAX FOLD Induction/DMSO CONTROL” value was 6.053 fold. Besides, for the setting “Homo sapiens, U2OS”, the EC50 is 7.67 µM and the fold induction at 20 µM stood at 6.07. Further, under setting [1], the fold induction at 2 µM amounted to 1.5.

As for `c1ccc2cc(-c3ccnc(N4CC[C@@H](N5CCNCC5)C4)n3)ccc2c1` [4-(2-naphthyl)-2-[(3R)-3-piperazin-1-ylpyrrolidin-1-yl]pyrimidine], the “A = MAX FOLD Induction/DMSO CONTROL” value was determined as 2.510 fold. Also, the fold induction at 2 µM under setting [1] was found to be 3.44.

For the compound `c1ccc2cc(-c3ccnc(N4CC[C@@H](N5CCCCC5)C4)n3)ccc2c1` [4-(2-naphthyl)-2-[(3R)-3-piperidin-1-ylpyrrolidin-1-yl]pyrimidine], the fold induction at 2 µM under setting [1] is 1.29. The fold induction at 20 µM (Homo sapiens, U2OS) stood at 0.06.

As to `c1ccc2cc(-c3ccnc(N4CC[C@@H](CN5CCCCC5)C4)n3)ccc2c1` [4-(2-naphthyl)-2-[(3S)-3-(piperidin-1-ylmethyl)pyrrolidin-1-yl]pyrimidine], the fold induction at 2 µM under setting [1] turned out to be 1.34. In addition, under “Homo sapiens, U2OS”, the fold induction at 20 µM amounted to 1.06.

On to `c1ccc2cc(-c3ccnc(N4CC[C@@H](CN5CCCC5)C4)n3)ccc2c1` [4-(2-naphthyl)-2-[(3S)-3-(pyrrolidin-1-ylmethyl)pyrrolidin-1-yl]pyrimidine], for which the “A = MAX FOLD Induction/DMSO CONTROL” value came out at 4.050 fold. For the same compound, the fold induction at 2 µM under setting [1] turned out to be 1.9. In addition, for the setting “Homo sapiens, U2OS”, the fold induction at 20 µM came to 5.18.

`c1ccc2cc(-c3ccnc(N4CC[C@H](N5CCNCC5)C4)n3)ccc2c1` [4-(2-naphthyl)-2-[(3S)-3-piperazin-1-ylpyrrolidin-1-yl]pyrimidine]: the “A = MAX FOLD Induction/DMSO CONTROL” value amounted to 7.520 fold. Besides, the EC50 (Homo sapiens, U2OS) came out at 1.1 µM. Moreover, the fold induction at 2 µM under setting [1] worked out at 6.16.

With `c1ccc2cc(-c3ccnc(N4CC[C@H](N5CCCCC5)C4)n3)ccc2c1` [4-(2-naphthyl)-2-[(3S)-3-piperidin-1-ylpyrrolidin-1-yl]pyrimidine], the fold induction at 2 µM under setting [1] is 1.65.

For `c1ccc2cc(-c3ccnc(N4CCNCC4)n3)ccc2c1` [4-(2-naphthyl)-2-piperazin-1-ylpyrimidine], the “A = MAX FOLD Induction/DMSO CONTROL” value is 2.050 fold. Under “Homo sapiens, U2OS, read-out: B = TCF ACTIVITY/DMSO CONTROL Fold induction @ 2.0 uM”, the fold induction at 2 µM was 2.64.

In the case of `c1ccc2cc(-c3ccnc(N4CCCCC4)n3)ccc2c1` [4-(2-naphthyl)-2-piperidin-1-ylpyrimidine], the fold induction at 2 µM under setting [1] is 0.92. The fold induction at 20 µM (Homo sapiens, U2OS) came to 1.79.

With `c1ccc2cc(-c3ccnc(N4CCCC4)n3)ccc2c1` [4-(2-naphthyl)-2-pyrrolidin-1-ylpyrimidine], the fold induction at 2 µM under setting [1] was found to be 1.97.

For `c1ccc(CCNc2nccc(-c3ccc4ccccc4c3)n2)cc1` [4-(2-naphthyl)-N-(2-phenylethyl)pyrimidin-2-amine], under setting [1], the fold induction at 2 µM came to 1.91.

Consider `c1cncc(CCNc2nccc(-c3ccc4ccccc4c3)n2)c1` [4-(2-naphthyl)-N-(2-pyridin-3-ylethyl)pyrimidin-2-amine], for which the fold induction at 2 µM under setting [1] was determined as 1.15. Moreover, the fold induction at 20 µM (Homo sapiens, U2OS) is 1.04.

These data come from patent US20090054392A1, “NAPHTHYLPYRIMIDINE, NAPHTHYLPYRAZINE AND NAPHTHYLPYRIDAZINE ANALOGS AND THEIR USE AS AGONISTS OF THE WNT-BETA-CATENIN CELLULAR MESSAGING SYSTEM” (Wyeth, priority 2007, published 2009).
